Molecular target: T1, AsPC-1 HiBiT-KRASG12D (Homo sapiens, UniProt P01116, G12D)
T1 construct: insert the HiBiT tag onto the N-terminus of one or more of the endogenous KRAS alleles; endogenous in cells; host or cells: AsPC-1 (ATCC CRL-1682), CRISPR-Cas9 knock-in clone, one tagged allele
Experiment: HiBiT degradation assay (G12D), AsPC-1 HiBiT-KRASG12D cells
Type: cell-based
Conditions: 24 hours treatment; for Dmax: ASPC1, AsPC-1 HiBiT-KRASG12D cells, maximum degradation observed; for DC50: AsPC-1 HiBiT-KRASG12D cells, HiBiT luminescence
How it was run: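 Endogenous KRASG12D levels were measured via an N-terminal HiBiT tag knocked into AsPC-1 cells. Cells received compound titrations for 24 hours, and HiBiT luminescence was detected after a 45-minute lytic reagent incubation at room temperature.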

T1 sequence (P01116 1-188 isoform P01116-2 G12D): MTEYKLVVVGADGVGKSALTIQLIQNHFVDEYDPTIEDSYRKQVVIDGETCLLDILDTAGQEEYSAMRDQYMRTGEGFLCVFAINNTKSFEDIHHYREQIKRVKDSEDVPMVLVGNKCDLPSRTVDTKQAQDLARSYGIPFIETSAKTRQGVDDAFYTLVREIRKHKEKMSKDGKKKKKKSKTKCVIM

Row | SMILES | Dmax [%] | DC50 [nM]
1 | CCc1cccc2cc(O)cc(-c3ncc4c(N5CC6CCC(C5)N6)nc(OC[C@@]56CCCN5[C@H](COc5cc([C@H](C(=O)N7C[C@H](O)C[C@H]7C(=O)N[C@@H](C)c7ccc(-c8scnc8C)cc7)C(C)C)on5)CC6)nc4c3F)c12 [Compound 29, (2S,4R)-1-[(2R)-2-(3-{[(3S,7aS)-7a-{[(4-{3,8-diazabicyclo[3.2.1]octan-3-yl}-7-(8-ethyl-3-hydroxynaphthalen-1-yl)-8-fluoropyrido[4,3-d]pyrimidin-2-yl)oxy]methyl}-hexahydro-1H-pyrrolizin-3-yl]methoxy}-1,2-oxazol-5-yl)-3-methylbutanoyl]-4-hydroxy-N-[(1S)-1-[4-(4-methyl-1,3-thiazol-5-yl)phenyl]ethyl]pyrrolidine-2-carboxamide] | 80 to 100 | < 600
2 | CCc1cccc2cc(O)cc(-c3ncc4c(N5CC6CCC(C5)N6)nc(OC[C@@]56CCCN5[C@H](COc5cc([C@@H](C(=O)N7C[C@H](O)C[C@H]7C(=O)N[C@@H](C)c7ccc(-c8scnc8C)cc7)C(C)C)on5)CC6)nc4c3F)c12 [Compound 30, (2S,4R)-1-[(2S)-2-(3-{[(3S,7aS)-7a-{[(4-{3,8-diazabicyclo[3.2.1]octan-3-yl}-7-(8-ethyl-3-hydroxynaphthalen-1-yl)-8-fluoropyrido[4,3-d]pyrimidin-2-yl)oxy]methyl}-hexahydro-1H-pyrrolizin-3-yl]methoxy}-1,2-oxazol-5-yl)-3-methylbutanoyl]-4-hydroxy-N-[(1S)-1-[4-(4-methyl-1,3-thiazol-5-yl)phenyl]ethyl]pyrrolidine-2-carboxamide] | 20 to 60 | < 600
3 | CCc1cccc2cc(O)cc(-c3ncc4c(N5CC6CCC(C5)N6)nc(OCCN5CCC(C)(COc6cc([C@@H](C(=O)N7C[C@H](O)C[C@H]7C(=O)N[C@@H](C)c7ccc(-c8scnc8C)cc7)C(C)C)on6)CC5)nc4c3F)c12 [Compound 31, (2S,4R)-1-[(2S)-2-{3-[(1-{2-[(4-{3,8-diazabicyclo[3.2.1]octan-3-yl}-7-(8-ethyl-3-hydroxynaphthalen-1-yl)-8-fluoropyrido[4,3-d]pyrimidin-2-yl)oxy]ethyl}-4-methylpiperidin-4-yl)methoxy]-1,2-oxazol-5-yl}-3-methylbutanoyl]-4-hydroxy-N-[(1S)-1-[4-(4-methyl-1,3-thiazol-5-yl)phenyl]ethyl]pyrrolidine-2-carboxamide] | – | > 3000
4 | CCc1cccc2cc(O)cc(-c3ncc4c(N5CC6CCC(C5)N6)nc(OCCN5CCC(C)(COc6cc([C@H](C(=O)N7C[C@H](O)C[C@H]7C(=O)N[C@@H](C)c7ccc(-c8scnc8C)cc7)C(C)C)on6)CC5)nc4c3F)c12 [Compound 32, (2S,4R)-1-[(2R)-2-{3-[(1-{2-[(4-{3,8-diazabicyclo[3.2.1]octan-3-yl}-7-(8-ethyl-3-hydroxynaphthalen-1-yl)-8-fluoropyrido[4,3-d]pyrimidin-2-yl)oxy]ethyl}-4-methylpiperidin-4-yl)methoxy]-1,2-oxazol-5-yl}-3-methylbutanoyl]-4-hydroxy-N-[(1S)-1-[4-(4-methyl-1,3-thiazol-5-yl)phenyl]ethyl]pyrrolidine-2-carboxamide] | 80 to 100 | < 600
5 | C#Cc1c(F)ccc2cc(O)cc(-c3ncc4c(N5CC6CCC(C5)N6)nc(OCCN5CCC6(CC5)CN(c5cc([C@H](C(=O)N7C[C@H](O)C[C@H]7C(=O)N[C@@H](C)c7ccc(-c8scnc8C)cc7)C(C)C)on5)C6)nc4c3F)c12 [Compound 33, (2S,4R)-1-[(2R)-2-[3-(7-{2-[(4-{3,8-diazabicyclo[3.2.1]octan-3-yl}-7-(8-ethynyl-7-fluoro-3-hydroxynaphthalen-1-yl)-8-fluoropyrido[4,3-d]pyrimidin-2-yl)oxy]ethyl}-2,7-diazaspiro[3.5]nonan-2-yl)-1,2-oxazol-5-yl]-3-methylbutanoyl]-4-hydroxy-N-[(1S)-1-[4-(4-methyl-1,3-thiazol-5-yl)phenyl]ethyl]pyrrolidine-2-carboxamide] | 80 to 100 | < 600
6 | CCc1cccc2cc(O)cc(-c3ncc4c(N5CC6CCC(C5)N6)nc(OC[C@@H]5CC[C@@H](COC(=O)N6CCN(c7cc([C@H](C(=O)N8C[C@H](O)C[C@H]8C(=O)N[C@@H](C)c8ccc(-c9scnc9C)cc8)C(C)C)on7)CC6)N5C)nc4c3F)c12 [Compound 50, [(2S,5S)-5-{[(4-{3,8-diazabicyclo[3.2.1]octan-3-yl}-7-(8-ethyl-3-hydroxynaphthalen-1-yl)-8-fluoropyrido[4,3-d]pyrimidin-2-yl)oxy]methyl}-1-methylpyrrolidin-2-yl]methyl 4-{5-[(2R)-1-[(2S,4R)-4-hydroxy-2-{[(1S)-1-[4-(4-methyl-1,3-thiazol-5-yl)phenyl]ethyl]carbamoyl}pyrrolidin-1-yl]-3-methyl-1-oxobutan-2-yl]-1,2-oxazol-3-yl}piperazine-1-carboxylate] | 80 to 100 | < 600
7 | C#Cc1c(F)ccc2cccc(-c3ncc4c(N5CC6CCC(C5)N6)nc(OC[C@@]56CCCN5[C@H](COc5cc([C@@H](C(=O)N7C[C@H](O)C[C@H]7C(=O)N[C@@H](C)c7ccc(-c8scnc8C)cc7)C(C)C)on5)CC6)nc4c3F)c12 [Compound 51, (2S,4R)-1-[(2S)-2-(3-{[(3S,7aS)-7a-{[(4-{3,8-diazabicyclo[3.2.1]octan-3-yl}-7-(8-ethynyl-7-fluoronaphthalen-1-yl)-8-fluoropyrido[4,3-d]pyrimidin-2-yl)oxy]methyl}-hexahydro-1H-pyrrolizin-3-yl]methoxy}-1,2-oxazol-5-yl)-3-methylbutanoyl]-4-hydroxy-N-[(1S)-1-[4-(4-methyl-1,3-thiazol-5-yl)phenyl]ethyl]pyrrolidine-2-carboxamide] | – | > 3000
8 | C#Cc1c(F)ccc2cccc(-c3ncc4c(N5CC6CCC(C5)N6)nc(OC[C@@]56CCCN5[C@H](COc5cc([C@H](C(=O)N7C[C@H](O)C[C@H]7C(=O)N[C@@H](C)c7ccc(-c8scnc8C)cc7)C(C)C)on5)CC6)nc4c3F)c12 [Compound 52, (2S,4R)-1-[(2R)-2-(3-{[(3S,7aS)-7a-{[(4-{3,8-diazabicyclo[3.2.1]octan-3-yl}-7-(8-ethynyl-7-fluoronaphthalen-1-yl)-8-fluoropyrido[4,3-d]pyrimidin-2-yl)oxy]methyl}-hexahydro-1H-pyrrolizin-3-yl]methoxy}-1,2-oxazol-5-yl)-3-methylbutanoyl]-4-hydroxy-N-[(1S)-1-[4-(4-methyl-1,3-thiazol-5-yl)phenyl]ethyl]pyrrolidine-2-carboxamide] | 80 to 100 | < 600
9 | C#Cc1c(F)ccc2cccc(-c3ncc4c(N5CC6CCC(C5)N6)nc(OC[C@]56CCCN5[C@H](COC(=O)N5CCN(c7cc([C@H](C(=O)N8C[C@H](O)C[C@H]8C(=O)N[C@@H](C)c8ccc(-c9scnc9C)cc8)C(C)C)on7)CC5)CC6)nc4c3F)c12 [Compound 53, [(3S,7aR)-7a-{[(4-{3,8-diazabicyclo[3.2.1]octan-3-yl}-7-(8-ethynyl-7-fluoronaphthalen-1-yl)-8-fluoropyrido[4,3-d]pyrimidin-2-yl)oxy]methyl}-hexahydro-1H-pyrrolizin-3-yl]methyl 4-{5-[(2R)-1-[(2S,4R)-4-hydroxy-2-{[(1S)-1-[4-(4-methyl-1,3-thiazol-5-yl)phenyl]ethyl]carbamoyl}pyrrolidin-1-yl]-3-methyl-1-oxobutan-2-yl]-1,2-oxazol-3-yl}piperazine-1-carboxylate] | 80 to 100 | < 600
10 | CCc1cccc2cccc(-c3ncc4c(N5CC6CCC(C5)N6)nc(OC[C@@]56CCCN5[C@H](COc5cc([C@H](C(=O)N7C[C@H](O)C[C@H]7C(=O)N[C@@H](C)c7ccc(-c8scnc8C)cc7)C(C)C)on5)CC6)nc4c3F)c12 [Compound 54, (2S,4R)-1-[(2R)-2-(3-{[(3S,7aS)-7a-{[(4-{3,8-diazabicyclo[3.2.1]octan-3-yl}-7-(8-ethylnaphthalen-1-yl)-8-fluoropyrido[4,3-d]pyrimidin-2-yl)oxy]methyl}-hexahydro-1H-pyrrolizin-3-yl]methoxy}-1,2-oxazol-5-yl)-3-methylbutanoyl]-4-hydroxy-N-[(1S)-1-[4-(4-methyl-1,3-thiazol-5-yl)phenyl]ethyl]pyrrolidine-2-carboxamide] | 80 to 100 | < 600
11 | CCc1cccc2cccc(-c3ncc4c(N5CC6CCC(C5)N6)nc(OC[C@@]56CCCN5[C@H](COc5cc([C@@H](C(=O)N7C[C@H](O)C[C@H]7C(=O)N[C@@H](C)c7ccc(-c8scnc8C)cc7)C(C)C)on5)CC6)nc4c3F)c12 [Compound 55, (2S,4R)-1-[(2S)-2-(3-{[(3S,7aS)-7a-{[(4-{3,8-diazabicyclo[3.2.1]octan-3-yl}-7-(8-ethylnaphthalen-1-yl)-8-fluoropyrido[4,3-d]pyrimidin-2-yl)oxy]methyl}-hexahydro-1H-pyrrolizin-3-yl]methoxy}-1,2-oxazol-5-yl)-3-methylbutanoyl]-4-hydroxy-N-[(1S)-1-[4-(4-methyl-1,3-thiazol-5-yl)phenyl]ethyl]pyrrolidine-2-carboxamide] | – | > 3000
12 | C#Cc1c(F)ccc2cc(O)cc(-c3ncc4c(N5CC6CCC(C5)N6)nc(OC[C@]56CCCN5[C@H](COC(=O)N5CCN(c7cc([C@H](C(=O)N8C[C@H](O)C[C@H]8C(=O)N[C@@H](C)c8ccc(-c9scnc9C)cc8)C(C)C)on7)CC5)CC6)nc4c3F)c12 [Compound 56, [(3S,7aR)-7a-{[(4-{3,8-diazabicyclo[3.2.1]octan-3-yl}-7-(8-ethynyl-7-fluoro-3-hydroxynaphthalen-1-yl)-8-fluoropyrido[4,3-d]pyrimidin-2-yl)oxy]methyl}-hexahydro-1H-pyrrolizin-3-yl]methyl 4-{5-[(2R)-1-[(2S,4R)-4-hydroxy-2-{[(1S)-1-[4-(4-methyl-1,3-thiazol-5-yl)phenyl]ethyl]carbamoyl}pyrrolidin-1-yl]-3-methyl-1-oxobutan-2-yl]-1,2-oxazol-3-yl}piperazine-1-carboxylate] | 80 to 100 | < 600

Source: US20250206732A1, “COMPOUNDS AND METHODS FOR THE TARGETED DEGRADATION OF KRAS” (Arvinas Operations, Inc., priority 2022, published 2025)
